# Target: T1, BRAF (Homo sapiens, UniProt P15056)
# T1 construct: purchased Thermo Fisher Scientific (Life Technologies) SelectScreen
# Test: SelectScreen Z'LYTE
# Format: biochemical
# Conditions: ATP 100 µM
# How it was run: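 NU5455 was profiled across the SelectScreen Broad panel of kinase activity and binding assays. Z'LYTE reactions such as CSF1R ran at apparent Km ATP, while the Adapta CAMK1 assay used ATP listed as 10. Values are given as percent.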
# T1 sequence (P15056 whole entry): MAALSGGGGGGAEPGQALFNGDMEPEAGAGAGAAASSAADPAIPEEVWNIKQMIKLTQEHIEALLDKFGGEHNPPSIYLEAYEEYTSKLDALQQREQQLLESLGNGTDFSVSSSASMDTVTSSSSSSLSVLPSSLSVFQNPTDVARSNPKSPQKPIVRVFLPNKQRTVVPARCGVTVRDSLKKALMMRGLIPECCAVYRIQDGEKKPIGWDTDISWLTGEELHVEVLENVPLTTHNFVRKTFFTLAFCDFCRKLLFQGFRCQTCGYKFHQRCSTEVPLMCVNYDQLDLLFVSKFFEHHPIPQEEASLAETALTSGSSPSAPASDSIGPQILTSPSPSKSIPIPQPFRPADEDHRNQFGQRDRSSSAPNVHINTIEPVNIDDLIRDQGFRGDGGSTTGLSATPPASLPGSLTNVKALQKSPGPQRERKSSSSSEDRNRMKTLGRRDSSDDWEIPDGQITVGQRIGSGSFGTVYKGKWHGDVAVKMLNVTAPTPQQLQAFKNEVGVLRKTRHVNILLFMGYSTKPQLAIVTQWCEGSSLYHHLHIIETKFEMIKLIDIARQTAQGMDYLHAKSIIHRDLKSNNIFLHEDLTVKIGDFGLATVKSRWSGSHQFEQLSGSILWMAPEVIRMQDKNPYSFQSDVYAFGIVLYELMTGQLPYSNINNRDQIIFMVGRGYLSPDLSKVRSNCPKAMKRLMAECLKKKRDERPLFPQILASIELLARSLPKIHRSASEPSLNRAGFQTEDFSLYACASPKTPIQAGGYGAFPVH
smiles,measurement,value
CN(C(=O)CN1CCOCC1)c1ccc2sc3c(-c4cccc5c(=O)cc(N6CC7CCC(C6)O7)oc45)cccc3c2c1 [NU5455],inhibition at 1 µM,9.9%
